From US10202413B2, “Neuroactive enantiomeric 15-, 16- and 17-substituted steroids as modulators for GABA type-A receptors” (priority 2013, dated 2019)
Like-named read-outs stand apart in the source and are kept apart here. Marks after values point to notes of the source that are not given here.

Tests used:
[1] = system: Tadpole; test: Tadpole loss of righting (LRR) and loss of swimming (LSR) reflexes; assay type: in vivo; details: for EC50: ± SEM; for tadpoles that lost LRR / tadpoles that lost LSR: concentration of 3 μM, number of 10 tadpoles
Description: Table 3 discloses the anesthetic effects of the compounds of the present disclosure. In particular, the anesthetic effect of the compounds of the present disclosure on Loss of Righting Reflex (LRR) and Loss of Swimming Reflex (LSR).
Methods used are known in the art (see, e.g., Jiang, et al., Neurosteroid analogues. 9. Conformationally constrained pregnanes: structure-activity studies of 13,24-cyclo-18,21-dinorcholane analogues of the GABA modulatory and anesthetic steroids (3α,5α)- and (3α,5β)-3-hydroxypregnan-20-one. J. Med. Chem. 2003, 46, 5334-5348). Error limits are calculated as standard error of the mean (N=10 or more animals at each of five or more different concentrations).

[2] = biological target: T1, rat α1β2γ2L type GABAA receptors expressed in Xenopus laevis oocytes (Rattus norvegicus, UniProt P18508+P62813+P63138, INS375LLRMFSFK); test: Oocyte electrophysiology: potentiation of chloride currents mediated by 2 μM GABA, and direct gating; assay type: cell-based; details: ± SEM (N≥4); for ratio of currents measured in the presence/absence of added compound, 0.1 μM: 0.1 μM compound; for ratio of currents measured in the presence/absence of added compound, 0.1 μM / ratio of currents measured in the presence/absence of added compound, 1.0 μM / ratio of currents measured in the presence/absence of added compound, 10 μM: 2 μM GABA; for ratio of currents measured in the presence/absence of added compound, 1.0 μM: 1.0 μM compound; for ratio of currents measured in the presence/absence of added compound, 10 μM: 10 μM compound; for (gating) 10 μM: ratio of compound only current/GABA current: direct current gated by 10 μM compound in the absence of GABA
T1 construct: expressed in transfected cells; host or cells: Xenopus laevis oocytes
Protocol: The compounds of the present disclosure were evaluated for the ability to potentiate chloride currents mediated by 2 μM GABA at rat α1β2γ2L type GABAA receptors expressed in Xenopus laevis oocytes and the results are shown in Table 2.
The GABA concentration used for the control response was 2 μM. Each compound was evaluated on at least four different oocytes at the concentrations indicated, and the results reported are the ratio of currents measured in the presence/absence of added compound. Gating represents direct current gated by 10 μM compound in the absence of GABA, and this current is reported as the ratio of compound only current/[…] current. Error limits are calculated as standard error of the mean (N≥4). Receptor expression and whole-cell and single-channel recordings were carried out as described previously (see Jiang, et al., Neurosteroid analogues. 9. Conformationally constrained pregnanes: structure-activity studies of 13,24-cyclo-18,21-dinorcholane analogues of the GABA modulatory and anesthetic steroids (3α,5α)- and (3α,5β)-3-hydroxypregnan-20-one. J. Med. Chem. 2003, 46, 5334-5348).

[3] = biological target: picrotoxin binding site on GABAA receptors; test: [35S]-TBPS displacement (inhibition of [35S]-TBPS binding); details: non-competitive displacement of [35S]-TBPS; ± standard error of the mean
Protocol: The IC50 values for the compounds of the examples as non-competitive displacers of [^35S]-TBPS from the picrotoxin binding site on GABAA receptors are reported in Table 1.
Results presented are from duplicate experiments performed in triplicate. Error limits are calculated as standard error of the mean. Methods used are known in the art (see, e.g., Jiang, et al., Neurosteroid analogues. 9. Conformationally constrained pregnanes: structure-activity studies of 13,24-cyclo-18,21-dinorcholane analogues of the GABA modulatory and anesthetic steroids (3α,5α)- and (3α,5β)-3-hydroxypregnan-20-one. J. Med. Chem. 2003, 46, 5334-5348).

[4] = loss of righting reflex, read-out: Tadpole LRR EC50
[5] = loss of swimming reflex, read-out: Tadpole LSR EC50

T1 sequence (P62813 28-455, stated change not applied): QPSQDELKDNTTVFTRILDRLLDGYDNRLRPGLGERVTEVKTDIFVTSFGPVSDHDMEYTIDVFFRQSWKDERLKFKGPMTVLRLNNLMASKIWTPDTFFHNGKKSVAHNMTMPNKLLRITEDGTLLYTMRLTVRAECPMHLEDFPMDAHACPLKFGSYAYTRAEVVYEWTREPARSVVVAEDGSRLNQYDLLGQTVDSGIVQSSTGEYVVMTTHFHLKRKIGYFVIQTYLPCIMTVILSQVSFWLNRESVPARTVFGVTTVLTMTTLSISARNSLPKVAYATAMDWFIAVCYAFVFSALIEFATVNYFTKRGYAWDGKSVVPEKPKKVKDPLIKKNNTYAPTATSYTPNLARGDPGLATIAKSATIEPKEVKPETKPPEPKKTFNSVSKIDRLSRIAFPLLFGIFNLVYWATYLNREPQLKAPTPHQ
T1 sequence (P63138 26-474, stated change not applied): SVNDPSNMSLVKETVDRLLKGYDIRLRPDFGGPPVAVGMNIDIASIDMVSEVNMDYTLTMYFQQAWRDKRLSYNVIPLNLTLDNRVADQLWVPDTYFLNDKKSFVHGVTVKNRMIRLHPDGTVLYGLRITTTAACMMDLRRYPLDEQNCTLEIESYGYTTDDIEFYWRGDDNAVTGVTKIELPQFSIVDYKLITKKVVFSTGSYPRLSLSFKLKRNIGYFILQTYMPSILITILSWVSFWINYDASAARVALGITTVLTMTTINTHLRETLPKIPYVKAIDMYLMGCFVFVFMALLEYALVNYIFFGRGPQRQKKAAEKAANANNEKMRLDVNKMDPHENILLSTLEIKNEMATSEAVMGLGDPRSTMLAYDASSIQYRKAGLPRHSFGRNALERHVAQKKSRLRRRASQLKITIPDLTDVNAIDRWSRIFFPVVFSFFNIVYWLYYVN
T1 sequence (P18508 with tags, fused parts or gaps INS375LLRMFSFK): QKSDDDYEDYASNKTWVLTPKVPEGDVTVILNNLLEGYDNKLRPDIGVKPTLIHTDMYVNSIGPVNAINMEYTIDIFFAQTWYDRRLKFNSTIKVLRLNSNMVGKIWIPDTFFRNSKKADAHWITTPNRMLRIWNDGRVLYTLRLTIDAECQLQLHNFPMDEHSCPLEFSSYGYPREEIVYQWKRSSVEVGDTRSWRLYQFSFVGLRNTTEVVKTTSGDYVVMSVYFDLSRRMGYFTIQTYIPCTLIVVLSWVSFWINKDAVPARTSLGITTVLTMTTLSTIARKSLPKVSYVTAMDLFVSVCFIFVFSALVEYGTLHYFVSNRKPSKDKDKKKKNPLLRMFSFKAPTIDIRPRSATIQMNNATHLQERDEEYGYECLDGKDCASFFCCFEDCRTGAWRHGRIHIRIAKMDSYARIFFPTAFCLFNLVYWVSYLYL

Compound | EC50 [1, 4] | EC50 [1, 5] | ratio of currents measured in the presence/absence of added compound, 0.1 μM [2] | ratio of currents measured in the presence/absence of added compound, 1.0 μM [2] | ratio of currents measured in the presence/absence of added compound, 10 μM [2] | (gating) 10 μM: ratio of compound only current/GABA current [2] | IC50 [3] | melting point | tadpoles that lost LRR [1] | tadpoles that lost LSR [1]
C[C@@]12CC[C@H](O)C[C@@H]1CC[C@H]1[C@H]2CC[C@@]2(C)C=C(C#N)C[C@H]12 [KK-136, (3β,5α,8α,9β,10α,13α,14β)-3-Hydroxyandrost-16-ene-16-carbonitrile] | 480 ± 20 nM | 1730 ± 30 nM | 0.98 ± 0.02 | 1.98 ± 0.14 | 10.04 ± 1.26 | 0.29 ± 0.25 | 335 ± 27 nM | 195 to 197 °C |  | 
C[C@@]12CC[C@H](O)C[C@H]1CC[C@@H]1[C@H]3CC(=O)C[C@@H]3CC[C@H]12 [KK-114] | 3640 ± 2170 nM | > 10000 nM | 0.93 ± 0.02 | 1.13 ± 0.02 | 3.56 ± 0.15 | 0.01 ± 0.02 | 1520 nM | 174 to 177 °C |  | 
CC(=O)[C@@H]1C[C@@H]2[C@H]3CC[C@@H]4C[C@@H](O)CC[C@@]4(C)[C@@H]3CC[C@@]2(C)C1 [KK-135, (3β,5β,8α,9β,10α,13α,14β,16α)-16-Acetylandrostan-3-ol] |  |  | 1.17 ± 0.09 | 3.26 ± 0.31 | 6.21 ± 0.31 | −0.04 ± 0.06 | 184 ± 11 nM | 169 to 172 °C | 10/10^a | 10/10^a
C[C@@]12CC[C@@H]3[C@H](CC[C@H]4C[C@@H](O)CC[C@]43C)[C@H]1CC(=O)C2 [KK-97, (3β,5α,8α,9β,10α,13α,14β)-3-Hydroxyandrostan-16-one] | 490 ± 110 nM | 1730 ± 30 nM | 1.75 ± 0.24 | 6.15 ± 0.41 | 30.62 ± 2.14 | 0.16 ± 0.04 | 112 ± 7 nM | 132 to 134 °C |  | 
C[C@@]12CC[C@H]3[C@@H]4CC[C@H](O)C[C@H]4CC[C@@H]3[C@H]1CCC2=O [KK-18, (3β,5β,8α,9β,10α,13α,14β)-3-Hydroxyestran-17-one] | 3200 ± 2030 nM | > 10000 nM | 1.07 ± 0.05 | 1.64 ± 0.11 | 9.34 ± 1.36 | 0.13 ± 0.12 | 627 ± 100 nM |  |  | 
CO[C@H]1[C@H]2CC[C@H]3[C@@H](CC[C@@]4(C)C(=O)CC[C@H]34)[C@]2(C)CC[C@@H]1O [KK-117, (3β,4α,5β,8α,9β,10α,13α,14β)-3-Hydroxy-4-methoxyandrostan-17-one] | 590 ± 70 nM | 2940 nM | 1.21 ± 0.02 | 3.67 ± 0.33 | 12.21 ± 1.26 | 0.05 ± 0.03 | 198 ± 25 nM | 215 to 218 °C |  | 
C[C@@]12CC[C@H](O)C[C@H]1CC[C@H]1[C@H]2CC[C@@]2(C)C=C(C#N)C[C@H]12 [KK-141, (3β,5β,8α,9β,10α,13α,14β)-3-Hydroxyandrost-16-ene-16-carbonitrile] |  |  | 1.08 ± 0.11 | 1.35 ± 0.08 | 1.58 ± 0.13 | 0.08 ± 0.06 | 154 ± 19 nM | 247 to 249 °C | 5/10^b | 0/10^c
C[C@]1(O)CC[C@]2(C)[C@@H](CC[C@H]3[C@H]2CC[C@@]2(C)C(=O)CC[C@H]32)C1 [KK-26, (3β,5α,8α,9β,10α,13α,14β)-3-Hydroxy-3-methylandrostan-17-one] | 1880 nM | 5480 ± 200 nM | 1.38 ± 0.10 | 5.10 ± 0.64 | 23.74 ± 2.88 | 0.49 ± 0.18 | 290 ± 33 nM |  |  | 
C[C@]1(O)CC[C@]2(C)[C@H](CC[C@H]3[C@H]2CC[C@@]2(C)C(=O)CC[C@H]32)C1 [KK-23, (3β,5β,8α,9β,10α,13α,14β)-3-Hydroxy-3-methylandrostan-17-one] | 930 ± 530 nM | 2810 ± 10 nM | 1.11 ± 0.15 | 3.31 ± 0.43 | 19.74 ± 5.64 | 0.09 ± 0.02 | 185 ± 28 nM | 183 to 185 °C |  | 
C[C@@]12CC[C@@H]3[C@H](CC(=O)[C@@H]4C[C@@H](O)CC[C@@]34C)[C@H]1CC(=O)C2 [MQ-124, (3β,5β,8α,9β,10α,13α,14β)-3-Hydroxyandrostane-6,16-dione] | > 10000 nM | > 10000 nM | 0.68 ± 0.03 | 0.85 ± 0.03 | 1.57 ± 0.05 | −0.01 ± 0 | 8950 ± 1860 nM | 205 to 207 °C |  | 
O=C1C[C@@H]2CC[C@@H]3[C@H](CC[C@@H]4C[C@@H](O)CC[C@H]43)[C@H]2C1 |  |  |  |  |  |  |  | 168 to 169 °C |  | 
C[C@@]12CC[C@@H]3[C@H](CC[C@@H]4C[C@@H](O)CC[C@]43C)[C@H]1C[C@@H](C#N)C2 [KK-142, (3β,5β,8α,9β,10α,13α,14β,16α)-3-Hydroxyandrost-16-carbonitrile] |  |  | 2.20 ± 0.20 | 8.83 ± 3.12 | 13.32 ± 4.54 | 0.03 ± 0.01 | 29 ± 3 nM | 206 to 208 °C | 10/10^a | 10/10^a
